Source: patent publication US20260217683A1, “PYRIDAZINONE HETEROCYCLIC COMPOUND MYOSIN II INHIBITOR AND USE THEREOF” (Xizang Haisco Pharmaceutical Co., Ltd., priority 2023, published 2026)
Read-outs that look alike come from different tables or passages of the source.

Assays:
Assay type in all cases: biochemical
[1] = system: rabbit skeletal muscle myosin; assay: Inhibition of hydrolysis of ATP by rabbit skeletal muscle myosin
Experimental: The purpose of this test was to evaluate the ability of compounds to inhibit the hydrolysis of ATP by rabbit skeletal muscle myosin. The determination method was as follows:
• Preformed F-actin filaments (#AKF99-B, Cytoskeleton) were diluted to 1 mg/mL with Reaction buffer (25 mM Tris-HCL, pH 7.5+35 mM KCl+0.1 mM EGTA+1 mM MgCl2); • Rabbit myosin (#MYO2-A, Cytoskeleton) was diluted to 0.1 mg/mL with Resuspension buffer (15 mM Tris-HCL, PH7.5+0.2 M KCl+1 mM MgCl2); • ATP (#BSA04-001, Cytoskeleton) was diluted to 3 mM working solution with 15 mM Tris-HCL (PH=7.5);
• adding 13 μL reaction buffer+12 μL F-actin to actin control wells; • adding 10 μL reaction buffer+12 μL F-actin+3 μL myosin II to positive control wells; • adding 10 μL of compound working solution+12 μL of F-actin+3 μL of myosin II to the compound wells; • adding 5 μL of ATP working solution to all test wells to start the reaction, and simultaneously adding a sample to the Pi standard wells according to the instruction (#BK054, Cytoskeleton); • gently mixing and accurately incubating at 37° C. for 60 min; • adding 70 μL of CytoPhos Reagent (#BK054, Cytoskeleton) to each well and incubating for 10 min to stop the reaction.
• the OD value of each well was detected at 650 nm using the endpoint method. The standard curve was fitted according to Pi concentration and OD value, and the Pi concentration of each test well was obtained. Inhibition (%)=(Pi positive control well-Pi test well)/Pi positive control well*100%. The Inhibition %-[…] curve was fitted with Graphpad Prism 8 software, and IC50 was calculated.

cardiac myosin SII = target: T1, cardiac myosin SII (Bos taurus, UniProt Q9BE39); assay: Inhibition of hydrolysis of ATP by cardiac myosin SII; conditions: 100 μM compound
T1 construct: purchased Cytoskeleton #MYO3-A
Experimental: The purpose of this test was to evaluate the ability of compounds to inhibit the hydrolysis of ATP by cardiac myosin SII. The determination method was as follows: • 1. Solution formulation: • Preformed F-actin filaments (#AKF99-B, Cytoskeleton) were diluted to 1 mg/mL with Reaction buffer (15 mM Tris-HCL. PH7.5+10 mM KCl+0.1 mM EGTA+2 mM MgCl2); • Cardiac Muscle myosin (#MYO3-A, Cytoskeleton) was diluted to 1 mg/mL with Resuspension buffer (15 mM Tris-HCL, PH7.5+0.2M KCl+1 mM MgCl2); • ATP (#BSA04-001, Cytoskeleton) was diluted to 3 mM working solution with 15 mM Tris-HCL (PH=7.5); • 2. Formulation of working solution of compounds: the final compound concentration was 100 μM • 3. Experimental steps: • adding 10 μL of compound working solution+12 μL of Preformed F-actin filaments+3 μL of Cardiac Muscle myosin to the compound wells; • adding 10 μL of reaction buffer containing DMSO+12 μL Preformed F-actin filaments +3 μL Cardiac Muscle myosin to positive control wells; • adding 10 μL of reaction buffer containing DMSO+12 μL Preformed F-actin filaments +3 μL Resuspension buffer to negative control wells; • adding 5 μL of 3 mM ATP working solution to all test wells to start the reaction, gently mixing and incubating at 37° C. for 2 h; • after the reaction was completed, taking 6 μL of reaction liquid, adding 24 μL of reaction buffer for 5-fold dilution, then detecting the content of the product Pi with a phosphate kit (#BK054, Cytoskeleton); • adding a sample to Pi standard wells according to the instructions; • adding 70 μL of CytoPhos Reagent (#BK054, Cytoskeleton) to each well and incubating at room temperature for 10 min before detection. • 4. Detection: • the OD value of each well was detected at 650 nm. The standard curve was fitted according to Pi standard concentration and OD value, and the Pi concentration of each test well was obtained. Inhibition (%)=(positive control well−test well)/positive control well*100%.

smooth muscle myosin S1 = target: T2, smooth muscle myosin S1 (Gallus gallus, UniProt P10587); assay: Inhibition of hydrolysis of ATP by smooth muscle myosin S1 fragments; conditions: 100 μM compound
T2 construct: purchased Cytoskeleton #CS-MYS05
Experimental: The purpose of this test was to evaluate the ability of compounds to inhibit the hydrolysis of ATP by smooth muscle myosin Si fragments. The determination method was as follows: • 1. Solution formulation • F-actin polymer: Cardiac Actin powder (#CS-AD99, Cytoskeleton) was dissolved in a buffer (5 mM Pipes-KOH solution, PH=7.0, containing 100 μM ATP and 500 μM DTT) to form a 2 mg/mL solution and the solution was left at room temperature for 30 min; then 2 mM MgCl2 and 2 mM EGTA were added and the obtained system was left at room temperature for 40 min; • Smooth muscle SI fragment (#CS-MYS05, Cytoskeleton) was diluted with a pre-cooled PM12 buffer containing 1 mM DTT (12 mM Pipes-KOH solution, PH=7.0, containing 2 mM MgCl2) to form a 0.7 mg/mL solution; • ATP (#BSA04-001, Cytoskeleton) was diluted to 5 mM working solution with 15 mM Tris-HCL (PH=7.5); • 2. […] Experimental steps: • adding 10 μL of compound working solution+6 μL of F-actin polymer+4 μL of Smooth muscle Si fragment solution to the compound wells; • adding 10 μL of PM12 buffer containing DMSO+6 μL of F-actin polymer+4 μL of Smooth muscle S1 fragment solution to positive control wells; • adding 10 μL of PM12 buffer containing DMSO+6 μL of F-actin polymer+4 μL of PM12 buffer to negative control wells; • adding […] of 5 mM ATP working solution to all test wells to start the reaction, gently mixing and incubating at 37° C. for 20 min; • after the reaction was completed, taking 6 μLL of reaction liquid, adding 24 μL of PM12 buffer for 5-fold dilution, then detecting the content of the product Pi with a phosphate kit (#BK054, Cytoskeleton); • adding a standard according to the instructions, adding 70 μL of CytoPhos Reagent (#BK054, Cytoskeleton) to all wells and incubating at room temperature for 10 min before detection. • 4. Detection: • the OD value of each well was detected at 650 nm. The standard curve was fitted according to Pi standard concentration and OD value, and the Pi concentration of each test well was obtained. Inhibition (%)=(positive control well−test well)/positive control well*100%.

[2] = inhibition of hydrolysis of ATP, class symbols, read-out: Rabbit skeletal muscle myosin (IC50)
[3] = read-out: IC50 for inhibition of hydrolysis of ATP by rabbit skeletal muscle myosin

T1 sequence (Q9BE39 whole entry): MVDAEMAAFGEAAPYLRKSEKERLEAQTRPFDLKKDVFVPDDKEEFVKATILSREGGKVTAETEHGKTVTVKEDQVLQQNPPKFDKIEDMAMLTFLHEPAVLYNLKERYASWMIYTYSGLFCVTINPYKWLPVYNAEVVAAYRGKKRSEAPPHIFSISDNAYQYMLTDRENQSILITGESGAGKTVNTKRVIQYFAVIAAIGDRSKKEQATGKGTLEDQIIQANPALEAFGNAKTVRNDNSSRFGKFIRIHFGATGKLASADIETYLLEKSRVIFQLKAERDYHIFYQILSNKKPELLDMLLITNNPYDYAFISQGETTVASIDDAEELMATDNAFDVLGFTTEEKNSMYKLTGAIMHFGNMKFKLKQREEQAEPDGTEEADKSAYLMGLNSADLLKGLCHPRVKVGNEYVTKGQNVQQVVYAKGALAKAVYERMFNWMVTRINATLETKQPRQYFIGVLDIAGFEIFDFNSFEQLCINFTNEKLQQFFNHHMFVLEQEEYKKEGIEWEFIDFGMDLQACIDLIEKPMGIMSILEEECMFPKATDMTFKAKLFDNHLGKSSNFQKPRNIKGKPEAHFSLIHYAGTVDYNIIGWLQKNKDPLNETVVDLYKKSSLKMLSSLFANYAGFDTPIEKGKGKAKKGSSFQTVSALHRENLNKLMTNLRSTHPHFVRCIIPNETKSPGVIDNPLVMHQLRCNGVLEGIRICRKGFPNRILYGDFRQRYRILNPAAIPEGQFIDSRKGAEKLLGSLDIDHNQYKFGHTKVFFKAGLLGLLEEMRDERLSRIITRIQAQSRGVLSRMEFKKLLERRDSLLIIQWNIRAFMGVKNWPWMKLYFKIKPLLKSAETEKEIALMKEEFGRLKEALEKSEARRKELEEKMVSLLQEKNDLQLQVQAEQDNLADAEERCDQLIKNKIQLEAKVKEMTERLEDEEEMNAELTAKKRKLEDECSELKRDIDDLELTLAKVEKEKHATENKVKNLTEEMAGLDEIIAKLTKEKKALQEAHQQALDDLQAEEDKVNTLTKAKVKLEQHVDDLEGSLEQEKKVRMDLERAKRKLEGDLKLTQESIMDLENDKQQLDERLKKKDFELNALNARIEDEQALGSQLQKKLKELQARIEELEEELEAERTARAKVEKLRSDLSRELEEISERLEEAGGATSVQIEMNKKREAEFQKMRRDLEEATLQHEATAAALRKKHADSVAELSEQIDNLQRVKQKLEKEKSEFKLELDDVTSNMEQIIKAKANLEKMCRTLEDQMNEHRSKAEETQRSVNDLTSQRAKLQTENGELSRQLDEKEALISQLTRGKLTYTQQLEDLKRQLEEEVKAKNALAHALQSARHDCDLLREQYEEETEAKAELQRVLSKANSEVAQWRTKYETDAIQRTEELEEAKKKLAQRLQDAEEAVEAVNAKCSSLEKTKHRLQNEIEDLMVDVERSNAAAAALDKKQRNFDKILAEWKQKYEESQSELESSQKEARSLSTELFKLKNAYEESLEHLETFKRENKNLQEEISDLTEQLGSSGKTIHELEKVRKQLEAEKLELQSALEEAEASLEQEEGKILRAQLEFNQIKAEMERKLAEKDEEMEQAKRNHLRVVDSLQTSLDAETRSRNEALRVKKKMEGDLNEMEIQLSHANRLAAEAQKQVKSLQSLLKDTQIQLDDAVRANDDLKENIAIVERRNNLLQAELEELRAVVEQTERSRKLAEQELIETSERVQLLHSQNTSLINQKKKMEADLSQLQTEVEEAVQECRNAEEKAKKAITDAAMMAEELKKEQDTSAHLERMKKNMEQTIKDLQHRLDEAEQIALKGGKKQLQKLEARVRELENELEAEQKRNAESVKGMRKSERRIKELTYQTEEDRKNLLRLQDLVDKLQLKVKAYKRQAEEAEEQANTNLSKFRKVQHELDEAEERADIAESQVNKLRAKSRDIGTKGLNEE
T1 sequence (P85100 whole entry partner): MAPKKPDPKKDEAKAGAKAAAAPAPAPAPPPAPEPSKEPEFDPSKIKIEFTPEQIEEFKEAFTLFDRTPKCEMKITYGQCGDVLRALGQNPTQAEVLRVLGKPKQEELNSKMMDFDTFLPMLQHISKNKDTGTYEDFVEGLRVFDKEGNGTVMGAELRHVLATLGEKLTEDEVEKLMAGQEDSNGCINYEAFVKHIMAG
T1 sequence (Q3SZE5 whole entry partner): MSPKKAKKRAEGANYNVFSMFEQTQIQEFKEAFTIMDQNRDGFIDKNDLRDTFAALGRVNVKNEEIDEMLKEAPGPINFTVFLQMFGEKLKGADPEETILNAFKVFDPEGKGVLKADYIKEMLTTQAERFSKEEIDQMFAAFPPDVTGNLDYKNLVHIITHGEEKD
T2 sequence (P10587 84-789 limits assumed): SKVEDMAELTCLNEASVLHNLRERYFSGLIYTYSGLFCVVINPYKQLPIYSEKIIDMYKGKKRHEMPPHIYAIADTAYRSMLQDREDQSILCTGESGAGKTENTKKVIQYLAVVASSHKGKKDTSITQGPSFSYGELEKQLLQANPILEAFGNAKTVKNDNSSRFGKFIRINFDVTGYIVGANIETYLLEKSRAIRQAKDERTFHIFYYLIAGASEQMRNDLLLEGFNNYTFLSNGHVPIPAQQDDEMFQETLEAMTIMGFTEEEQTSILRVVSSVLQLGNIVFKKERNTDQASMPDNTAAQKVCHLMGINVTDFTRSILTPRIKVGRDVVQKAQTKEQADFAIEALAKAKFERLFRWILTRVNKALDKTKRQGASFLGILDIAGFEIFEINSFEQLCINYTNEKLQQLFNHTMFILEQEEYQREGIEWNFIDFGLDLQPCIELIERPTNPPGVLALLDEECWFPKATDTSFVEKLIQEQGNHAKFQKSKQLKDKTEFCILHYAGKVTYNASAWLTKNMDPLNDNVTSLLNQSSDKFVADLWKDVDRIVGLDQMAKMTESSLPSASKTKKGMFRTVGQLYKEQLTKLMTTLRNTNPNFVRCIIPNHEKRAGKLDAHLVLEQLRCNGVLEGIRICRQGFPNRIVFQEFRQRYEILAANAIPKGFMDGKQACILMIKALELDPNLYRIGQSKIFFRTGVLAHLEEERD
T2 sequence (P02607 whole entry partner, the tested form may be a part): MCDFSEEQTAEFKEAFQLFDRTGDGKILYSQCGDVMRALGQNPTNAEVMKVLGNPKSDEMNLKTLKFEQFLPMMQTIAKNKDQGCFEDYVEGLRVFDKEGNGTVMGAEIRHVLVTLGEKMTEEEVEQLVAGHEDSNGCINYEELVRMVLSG

SMILES | IC50 [1, 2] | IC50 [1, 3] | other results
O=C1CCc2ccc(Cn3nc4c(cc3=O)CCc3nc(OCC(F)(F)F)ncc3-4)cc21 [Compound 154] | 2500 to 20000 nM | – | –
O=c1ccc(-c2cnc(OCCCF)nc2)nn1Cc1ccc2c(c1)CC2 [Compound 69] | < 2500 nM | 100 nM | inhibition at 100 µM (cardiac myosin SII): 19%
O=c1ccc(-c2cnc(OCC(F)(F)F)nc2)nn1Cc1cc2c(cc1F)CCC2 [Compound 99] | < 2500 nM | 800 nM | –
O=C1CCCc2ccc(Cn3nc(-c4cnc(OCC(F)(F)F)nc4)ccc3=O)cc21 [Compound 168] | 2500 to 20000 nM | – | –
O=c1ccc(-c2cnc(OCCC(F)F)nc2)nn1Cc1ccc2c(c1)CC2 [Compound 68] | < 2500 nM | 100 nM | –
O=c1ccc(-c2cnc(OCCCF)nc2)nn1Cc1ccc2c(c1)CCC2 [Compound 71] | < 2500 nM | – | inhibition at 100 µM (cardiac myosin SII): 21%
O=c1ccc(-c2cnc(OCC(F)F)nc2)nn1Cc1ccc2c(c1)C(F)(F)CC2 [Compound 100] | < 2500 nM | 100 nM | –
O=c1ccc(-c2cnc(Oc3cncc(Cl)c3)nc2)nn1Cc1ccc2c(c1)CCC2 [Compound 132] | < 2500 nM | 400 nM | inhibition at 100 µM (cardiac myosin SII): 1%
O=C1CCc2ccc(Cn3nc(-c4cnc(Oc5ccc(F)cn5)nc4)ccc3=O)cc21 [Compound 146] | 2500 to 20000 nM | – | –
O=C1CCc2c(Cl)cc(Cn3nc(-c4cnc(Oc5cncc(Cl)c5)nc4)ccc3=O)cc21 [Compound 175] | < 2500 nM | 530 nM | –
O=c1ccc(-c2cnc(OCC3CC3(F)F)nc2)nn1Cc1ccc2c(c1)CC2 (centres unmarked) [Compound 87] | < 2500 nM | 300 nM | –
O=C1CCc2c(Cl)cc(Cn3nc(-c4cnc(Oc5cccc(F)n5)nc4)ccc3=O)cc21 [Compound 174] | < 2500 nM | – | –
O=c1ccc(-c2cnc(OCC(F)(F)F)nc2)nn1Cc1ccc2c(c1)C=CC2 [Compound 137] | < 2500 nM | 300 nM | inhibition at 100 µM (smooth muscle myosin S1): 11%
O=c1ccc(-c2cnc(OCC(F)(F)F)nc2)nn1Cc1ccc2c(c1F)CCC2 [Compound 98] | < 2500 nM | 200 nM | –
O=c1ccc(-c2cnc(OCCF)nc2)nn1Cc1ccc2c(c1)CCC2 [Compound 75] | < 2500 nM | 500 nM | –
O=c1ccc(-c2cnc(OCCCCl)nc2)nn1Cc1ccc2c(c1)CCC2 [Compound 77] | < 2500 nM | – | –
O=c1ccc(-c2cnc(C3CC3)nc2)nn1Cc1ccc2c(c1)CCC2 [Compound 78] | < 2500 nM | – | –
CC(c1ccc2c(c1)CC2)n1nc(-c2cnc(OCC(F)(F)F)nc2)ccc1=O (centres unmarked) [Compound 61] | 2500 to 20000 nM | – | –
O=c1ccc(-c2cnc(OCC3CC3)nc2)nn1Cc1ccc2c(c1)CC2 [Compound 86] | < 2500 nM | 200 nM | –
O=c1ccc(-c2cnc(OCC(F)F)nc2)nn1Cc1ccc2c(c1)CC2 [compound 60] | < 2500 nM | 100 nM | –
O=c1ccc(-c2cnc(OCCC(F)(F)F)nc2)nn1Cc1ccc2c(c1)CC2 [Compound 65] | < 2500 nM | – | –

SMILES | IC50 [1, 2] | IC50 [1, 3] | other results
O=c1ccc(-c2cnc(OC3COC3)nc2)nn1Cc1ccc2c(c1)CC2 [Compound 94] | < 2500 nM | 200 nM | –
O=c1ccc(-c2cnc(OCC(F)(F)F)nc2)nn1Cc1ccc2c(c1)CC=C2 [Compound 138] | < 2500 nM | 200 nM | –
O=c1ccc(-c2cnc(OCC(F)(F)F)nc2)nn1Cc1ccc2c(c1)CC1CC21 (centres unmarked) [Compound 161] | < 2500 nM | 500 nM | Cardiac myosin SII (Inhibition @ 100 μM) (cardiac myosin SII; 100 µM): 5%
O=C1CCc2c(Cl)cc(Cn3nc(-c4cnc(Oc5cncc(F)c5)nc4)ccc3=O)cc21 [Compound 173] | < 2500 nM | 530 nM | –
O=c1ccc(-c2cnc(OCC(F)(F)F)nc2)nn1Cc1ccc2c(c1)CCC2(F)F [Compound 79] | 2500 to 20000 nM | – | –
O=c1ccc(-c2cnc(OC3CC(F)(F)C3)nc2)nn1Cc1ccc2c(c1)CCC2 [Compound 85] | 2500 to 20000 nM | – | –
O=c1ccc(-c2cnc(OC3CC3)nc2)nn1Cc1ccc2c(c1)CC2 [Compound 82] | < 2500 nM | 200 nM | –
O=C1CCc2c1cc(Cn1nc(-c3cnc(OCC(F)(F)F)nc3)ccc1=O)cc2C1CC1 [Compound 177] | 2500 to 20000 nM | – | –
O=C1CCc2ccc(Cn3nc(-c4cnc(Oc5cccc(C(F)(F)F)n5)nc4)ccc3=O)cc21 [Compound 144] | 2500 to 20000 nM | – | –
O=c1ccc(-c2cnc(OCCCCl)nc2)nn1Cc1ccc2c(c1)CC2 [Compound 70] | < 2500 nM | – | inhibition at 100 µM (cardiac myosin SII): 18%
O=C1CCc2ccc(Cn3nc(-c4cnc(OCC(F)(F)F)nc4)ccc3=O)c(F)c21 [Compound 152] | < 2500 nM | – | inhibition at 100 µM (smooth muscle myosin S1): -5%
O=c1ccc(-c2cnc(OC3CC(F)(F)C3)nc2)nn1Cc1ccc2c(c1)CC2 [Compound 83] | < 2500 nM | – | –
O=c1ccc(-c2cnc(OCCF)nc2)nn1Cc1ccc2c(c1)CC2 [Compound 66] | < 2500 nM | – | –
O=c1ccc(-c2cnc(OC3CCC(F)(F)CC3)nc2)nn1Cc1ccc2c(c1)CC2 [Compound 96] | 2500 to 20000 nM | – | inhibition at 100 µM (cardiac myosin SII): -9%
O=C1CCc2ccc(Cn3nc(-c4cnc(Oc5ccnc(C(F)(F)F)c5)nc4)ccc3=O)cc21 [Compound 143] | 2500 to 20000 nM | – | –
CC(c1ccc2c(c1)CC2)n1nc(-c2cnc(OCC(F)(F)F)nc2)ccc1=O (single isomer, unassigned) [Compound 64] | < 2500 nM | – | –
O=c1ccc(-c2cnc(Oc3cncc(F)c3)nc2)nn1Cc1ccc2c(c1)CC2 [Compound 101] | < 2500 nM | 100 nM | –
O=c1ccc(-c2cnc(OCCC(F)F)nc2)nn1Cc1ccc2c(c1)CCC2 [Compound 76] | < 2500 nM | – | –
O=c1ccc(-c2cnc(O[C@@H]3CCOC3)nc2)nn1Cc1ccc2c(c1)CC2 [Compound 107] | < 2500 nM | 200 nM | –
O=c1cc2c(nn1Cc1ccc3c(c1)CC3)-c1cnc(OC3CCOC3)nc1CC2 (centres unmarked) [Compound 122] | 2500 to 20000 nM | – | –
